Assay [1] deals with N-methyl-D-aspartate receptor. Nature of the assay: Capillary electrophoresis-patch clamp detection, NMDA/glycine pre-activated whole-cell biosensor. The assay is classed as cell-based, rat. The protocol: (§1) Separation of mixtures of glutamate receptor antagonists were performed using cell-based biosensor-compatible buffers. A cell-based biosensor-compatible buffer is a buffer which effectively keeps the cell-based biosensor in a functional and viable condition during the course of the experiment or the analysis procedure. slightly modified standard HEPES-saline buffer containing 140 mM NaCl, 5 mM KCl, 1 mM MgCl2, 1 mM CaCl2, 10 mM glucose and 10 mM HEPES (pH 7.4, NaOH) was used as extracellular and capillary buffer in examples 1 and 2 except in the separation of Mg^2+ where MgCl2 were omitted. As described in the examples, the preferred agonist were only—included in the capillary solution.
The cells used were interneurons from rat olfactory bulb acutely isolated according to the procedures described by Jacobson et al. (see Jacobson, I., Neurosci. Res. Comm. 8:11, 1991, and Jacobson, I., et al., Neurosci. Res. Comm. 10:177, 1992).
Newborn or adult rats (10-200 g) were anaesthetized with halothane (ISC Chemicals Ltd., Avonmouth, England) and decapitated. The olfactory bulbs were dissected and sliced into four pieces and placed in an incubation chamber. The chamber contained proteases from Aspergillus oryzae (2.5 mg/ml) which were dissolved in pre-warmed (32° C.) HEPES-saline buffer (see above). After 25-30 min., the slices were washed with the same buffer solution for 20 min. The solutions were constantly perfused with 95% O2 and 5% CO2 during both the enzymatic treatment arid the washing. […]
(§2) The patch clamp detection was performed in the whole-cell configuration as described by Hamill, et al. (see Hamill, O. P., et al, Pflug. Arch. 391:85, 1981). […] Patch pipettes were fabricated from thick-walled borosilicate glass (code no GC150-10, Clark Electromedical Instruments, Pangboume, Reading, UK). […]
(§3) The signals were recorded with a patch clamp amplifier (Model List L/M EPC-7, List-Electronic, Darmstadt, Germany), digitized (20 kHz, PCM 2 A/D VCR adapter, Medical Systems Corp., NY, USA), and stored on videotape. […]
In general terms: The patch-clamp technique gives a direct electrical read-out from membranes.

In assay [2] the test system is AMPA receptors. Briefly: Capillary electrophoresis-patch clamp detection, kainate pre-activated whole-cell biosensor. It is filed as cell-based. The settings on record: 100 μM KA in capillary; holding potential −70 mV; interneurons from rat olfactory bulb. On the procedure: as §1, with “solution. […]” for “solution.”
as §2, §3

Where [3] appears, read: voltage ramp −80 to +40 mV, NMDA receptor response attenuated by separated Mg^2+.

SMILES strings stand for the structures.

The text below walks through data of patent publication US6455303B1, “Detection of biologically active molecules by use of pre-activated cell-based biosensors in liquid-based separation systems” (Cellectricon AB, priority 1997, dated 2002).

As to `[Mg+2]` [Mg^2+], the “effect on N-methyl-D-aspartate-activated current responses” value in assay [1] (Mg^2+ 2 mM injected, 200 μM NMDA and 20 μM glycine in capillary, holding potential −70 mV, interneurons from rat olfactory bulb) is “transient Gaussian-distributed attenuation of N-methyl-D-aspartate-activated current responses”. Further, in assay [1] (setting [3]), the “current-to-voltage relationship: inward currents at membrane resting potentials” value was “blockade of inward currents at membrane resting potentials” and the “current-to-voltage relationship: outward currents at positive potentials” value was “unaltered outward currents at positive potentials”. Consider `O=C(O)c1nc2cc(Cl)c(Cl)cc2nc1O` [DCQXC, 6,7-dichloro-3-hydroxy-2-quinoxaline-carboxylic acid], for which the “effect on KA-activated current responses” value in assay [2] is recorded as “transient attenuations of KA-activated current responses”. As for `N#Cc1cc2c(cc1[N+](=O)[O-])=NC(=O)C(=O)N=2` [CNQX, 6-cyano-7-nitroquinoxaline-2,3-dione], the “effect on KA-activated current responses” value in assay [2] is given as “transient attenuations of KA-activated current responses”.
